According to patent EP0949270A1, “Synthetic peptides containing citrulline recognized by rheumatoid arthritis sera as tools for diagnosis and treatment” (INNOGENETICS N.V., priority 1998, dated 1999):
Ends that are not written are not given here.

Experiments:
[1] = system: anti-filaggrin binding; test: Inhibition ELISA on plates coated with human natural filaggrin, sera preincubated with competitor; conditions: peptide as competitor at 100 µg/ml; 4 APF positive sera
Description: Electro-eluted human natural filaggrin was coated in Maxisorp polystyrene plates at a concentration of 1 or 4 µg/ml in 50 mM carbonate buffer, pH 9.6 overnight at 4°C. Sera were diluted 1/50 in PBS, and preincubated with either the appropriate peptides at 100 µg/ml, with isolated natural filaggrin at 1 or 10 µg/ml (positive control) or with PBS (negative control) for 2 hours. The plates were blocked 1 hour with PBS, 0.1% caseïne at 37°C and subsequently incubated with the sera. During 2 hours at 37°C. Plates were washed 5 times with PBS, 0.05% Tween 20 and incubated with anti-human IgG-HRP in PBS, 0.1 % caseïne, 0.1 mM K3Fe(CN)6. Colour development was performed using tetramethylbenzidine diluted 1/100 into 0.1 M Na2HPO4, 0.1 M citric acid, 0.006% H2O2, pH 4.3. Reaction was stopped by addition of 2N H2SO4 and OD values were measured at 450 nm using a Bio-tek ELISA reader. The percentage of inhibition was caculated as folows: [formula]

[2] = system: antifilaggrin antibodies in human sera; test: Line Immuno Assay (LIA): reactivity of streptavidin-complexed synthetic peptides with human sera; type: binding; conditions: for LIA signals: 26 human RA sera (Fig. 3), peptides applied at 400 µg/ml, citrulline-containing peptides versus non-modified counterparts; for Reactivity in the LIA system: 75 sera from patients fulfilling the ARA criteria for RA, 13 synthetic peptides tested; for Reactivity of sera on synthetic peptides: sera IG35038/ 35041; for Immunoreaction towards peptide, comparison between peptides: in all serum groups
Text: Human sera were obtained from the Department of Rheumatology of the University Hospital in Ghent (Belgium). In total, 265 sera were included, of which 75 fulfilled the ARA criteria for RA (Arnett et al., Arthritis Rheum.,31: 315-324, 1987), 155 sera scored positive in the APF fluorescence test (De Keyser et al., in press), 98 reacted with natural filaggrin on Western blot, 80 were APF negative and 16 were derived from healthy controls.
Streptavidin-complexed peptides were applied directly on a nylon membrane with a plastic backing. Blocked strips were incubated overnight with human sera diluted 1/100 in 1 ml PBS, 0.5% caseine, 0.1% Triton X705, 10 mM MgCl2.6H2O. After washing with PBS, 0.05% Tween20, goat anti-human IgG-AP conjugated (Promega) diluted in PBS, 0.1% caseine, 0.2% Triton X705 was added for 1h30. Strips were developed in 100 mM NaCl, 100 mM Tris-HCl, pH 9.8, 50 mM MgCl2.6H2O substrate buffer containing the chromogenic substrate NBT/ BCIP. Reaction was stopped after 30 min by addition of 0.2 N H2SO4.

[3] = serum group APF neg., number of sera 80
[4] = serum group APF pos., number of sera 155
[5] = serum group Fg blot pos., number of sera 98
[6] = serum group Healthy, number of sera 16
[7] = serum group RA sera, number of sera 75

HSASQDGQDTIRGHPGSS [IGP1155] (also: Arg may be citrulline in one of each IGP pair, not given here)
number of sera significantly inhibited [1]: 2 out of 4
LIA signals [2]: positive
Reactivity in the LIA system [2]: Reactivity was noted
Reactivity of sera on synthetic peptides [2]: negative
Immunoreactivity of human sera with synthetic peptide: number of reactive sera [2, 3]: 4
Immunoreactivity of human sera with synthetic peptide: percentage of reactive sera [2, 3]: 5.5%
Immunoreactivity of human sera with synthetic peptide: number of reactive sera [2, 4]: 35
Immunoreactivity of human sera with synthetic peptide: percentage of reactive sera [2, 4]: 22.6%
Immunoreactivity of human sera with synthetic peptide: number of reactive sera [2, 5]: 35
Immunoreactivity of human sera with synthetic peptide: percentage of reactive sera [2, 5]: 37.2%
Immunoreactivity of human sera with synthetic peptide: number of reactive sera [2, 6]: 1
Immunoreactivity of human sera with synthetic peptide: percentage of reactive sera [2, 6]: 6.3%
Immunoreactivity of human sera with synthetic peptide: number of reactive sera [2, 7]: 17
Immunoreactivity of human sera with synthetic peptide: percentage of reactive sera [2, 7]: 22.7%

HSGIGHGQASSAVRDSGHRGYS [IGP1156] (not fully specified; also: Arg may be citrulline in one of each IGP pair, not given here)
LIA signals [2]: positive
Reactivity in the LIA system [2]: Reactivity was noted
Immunoreaction towards peptide, comparison between peptides [2]: best reactive
Reactivity of sera on synthetic peptides [2]: negative
Immunoreactivity of human sera with synthetic peptide: number of reactive sera [2, 3]: 4
Immunoreactivity of human sera with synthetic peptide: percentage of reactive sera [2, 3]: 5.5%
Immunoreactivity of human sera with synthetic peptide: number of reactive sera [2, 4]: 50
Immunoreactivity of human sera with synthetic peptide: percentage of reactive sera [2, 4]: 32.2%
Immunoreactivity of human sera with synthetic peptide: number of reactive sera [2, 5]: 46
Immunoreactivity of human sera with synthetic peptide: percentage of reactive sera [2, 5]: 48.9%
Immunoreactivity of human sera with synthetic peptide: number of reactive sera [2, 6]: 2
Immunoreactivity of human sera with synthetic peptide: percentage of reactive sera [2, 6]: 12.5%
Immunoreactivity of human sera with synthetic peptide: number of reactive sera [2, 7]: 25
Immunoreactivity of human sera with synthetic peptide: percentage of reactive sera [2, 7]: 33.3%

HSASQDGQDTIRGHPGSS [IGP1179] (also: Arg may be citrulline in one of each IGP pair, not given here) [reference compound]
LIA signals [2]: disappeared completely

DSGHRGYSGSQASDNEGH [IGP1157] (also: Arg may be citrulline in one of each IGP pair, not given here)
LIA signals [2]: positive
Reactivity in the LIA system [2]: Reactivity was noted
Immunoreaction towards peptide, comparison between peptides [2]: very faint
Reactivity of sera on synthetic peptides [2]: negative
Immunoreactivity of human sera with synthetic peptide: number of reactive sera [2, 3]: 2/61
Immunoreactivity of human sera with synthetic peptide: percentage of reactive sera [2, 3]: 3.3%
Immunoreactivity of human sera with synthetic peptide: number of reactive sera [2, 4]: 4/128
Immunoreactivity of human sera with synthetic peptide: percentage of reactive sera [2, 4]: 3.1%
Immunoreactivity of human sera with synthetic peptide: number of reactive sera [2, 5]: 4/94
Immunoreactivity of human sera with synthetic peptide: percentage of reactive sera [2, 5]: 4.2%
Immunoreactivity of human sera with synthetic peptide: number of reactive sera [2, 6]: 0/10
Immunoreactivity of human sera with synthetic peptide: percentage of reactive sera [2, 6]: 0%
Immunoreactivity of human sera with synthetic peptide: number of reactive sera [2, 7]: 3/72
Immunoreactivity of human sera with synthetic peptide: percentage of reactive sera [2, 7]: 4.2%

HSGIGHGQASSAVRDSGHRGYS [IGP1180] (also: Arg may be citrulline in one of each IGP pair, not given here) [reference compound]
LIA signals [2]: disappeared completely

DSGHRGYSGSQASDNEGH [IGP1181] (also: Arg may be citrulline in one of each IGP pair, not given here) [reference compound]
LIA signals [2]: disappeared completely

HSTSQEGQDTIHGHRGS [IGP1182] (also: Arg may be citrulline in one of each IGP pair, not given here) [reference compound]
LIA signals [2]: disappeared completely

GGQGSRHQQAR [IGP1249]
Reactivity in the LIA system [2]: Reactivity was noted
Immunoreactivity of human sera with synthetic peptide: number of reactive sera [2, 3]: 1/79
Immunoreactivity of human sera with synthetic peptide: percentage of reactive sera [2, 3]: 1.3%
Immunoreactivity of human sera with synthetic peptide: number of reactive sera [2, 4]: 23/150
Immunoreactivity of human sera with synthetic peptide: percentage of reactive sera [2, 4]: 15.3%
Immunoreactivity of human sera with synthetic peptide: number of reactive sera [2, 5]: 17/94
Immunoreactivity of human sera with synthetic peptide: percentage of reactive sera [2, 5]: 18.1%
Immunoreactivity of human sera with synthetic peptide: number of reactive sera [2, 6]: 1
Immunoreactivity of human sera with synthetic peptide: percentage of reactive sera [2, 6]: 6.3%
Immunoreactivity of human sera with synthetic peptide: number of reactive sera [2, 7]: 9/73
Immunoreactivity of human sera with synthetic peptide: percentage of reactive sera [2, 7]: 12.3%

HSTSQEGQDTIHGHRGS [IGP1158] (also: Arg may be citrulline in one of each IGP pair, not given here)
number of sera significantly inhibited [1]: 1
LIA signals [2]: positive
Reactivity in the LIA system [2]: Reactivity was noted
Immunoreaction towards peptide, comparison between peptides [2]: best reactive
Reactivity of sera on synthetic peptides [2]: negative
Immunoreactivity of human sera with synthetic peptide: number of reactive sera [2, 3]: 5/79
Immunoreactivity of human sera with synthetic peptide: percentage of reactive sera [2, 3]: 6.3%
Immunoreactivity of human sera with synthetic peptide: number of reactive sera [2, 4]: 42
Immunoreactivity of human sera with synthetic peptide: percentage of reactive sera [2, 4]: 27.1%
Immunoreactivity of human sera with synthetic peptide: number of reactive sera [2, 5]: 41
Immunoreactivity of human sera with synthetic peptide: percentage of reactive sera [2, 5]: 43.6%
Immunoreactivity of human sera with synthetic peptide: number of reactive sera [2, 6]: 1
Immunoreactivity of human sera with synthetic peptide: percentage of reactive sera [2, 6]: 6.3%
Immunoreactivity of human sera with synthetic peptide: number of reactive sera [2, 7]: 24
Immunoreactivity of human sera with synthetic peptide: percentage of reactive sera [2, 7]: 32%
